Read-outs that look alike come from different tables or passages of the source.
Experiments:
Heliothis virescens = assay: Action against Heliothis virescens caterpillars (sprayed soybean plants); format: in vivo; conditions: 144 h, read-out: percentage reduction in population and percentage reduction in feeding damage (% activity)
Procedure: (§1) Young soybean plants are sprayed with an aqueous emulsion spray mixture comprising 400 ppm of active ingredient. After the spray-coating has dried, the soybean plants are populated with 10 caterpillars of Heliothis virescens in the first stage and placed in a plastics container. Evaluation is made 6 days later. The percentage reduction in population and the percentage reduction in feeding damage (% activity) are determined by comparing the number of dead caterpillars and the feeding damage on the treated plants with that on the untreated plants.

Plutella xylostella = assay: Action against Plutella xylostella caterpillars (sprayed cabbage plants); format: in vivo; conditions: 72 h, read-out: percentage reduction in population and percentage reduction in feeding damage (% activity)
Procedure: as §1, with “cabbage” for “soybean”, “Plutella xylostella” for “Heliothis virescens”, “third” for “first”, “3” for “6”

Spodoptera littoralis = assay: Action against Spodoptera littoralis (sprayed soybean plants); format: in vivo; conditions: 72 h, read-out: percentage reduction in population and percentage reduction in feeding damage (% activity)
Procedure: Young soybean plants are sprayed with an aqueous emulsion spray mixture comprising 400 ppm of test compound and, after the spray-coating has dried, the plants are populated with 10 caterpillars of Spodoptera littoralis in the first stage and then placed in a plastics container. 3 days later, the percentage reduction in population and the percentage reduction in feeding damage (% activity) are determined by comparing the number of dead caterpillars and the feeding damage on the treated plants with that on untreated plants.

[1] = 400 ppm spray mixture, soybean plants, caterpillars in the first stage, evaluation 6 days later
[2] = 400 ppm spray mixture, cabbage plants, caterpillars in the third stage, evaluation 3 days later
[3] = 400 ppm spray mixture, soybean plants, caterpillars in the first stage, 3 days later

O=[N+]([O-])c1cccc(COCc2c(Cl)cc(OCC=C(Cl)Cl)cc2Cl)c1 [Compound 5.9, 1,3-dichloro-5-(3,3-dichloroallyloxy)-2-(3-nitrobenzyloxymethyl)-benzene] showed an inhibition at 400 ppm (Heliothis virescens) of over 80% and an inhibition at 400 ppm (Plutella xylostella) of over 80%.
ClC(Cl)=CCOc1cc(Cl)c(COc2ccc3c(c2)OCO3)c(Cl)c1 [Compound 1.8] showed an inhibition at 400 ppm (Plutella xylostella) of over 80%.
For ClC(Cl)=CCOc1cc(Cl)c(COCc2cnc(Cl)c(Cl)c2)c(Cl)c1 [Compound 5.14], the inhibition at 400 ppm (Heliothis virescens) was over 80%, the inhibition at 400 ppm (Plutella xylostella) was over 80% and the inhibition at 400 ppm (Spodoptera littoralis) was over 80%.
Molecule O=C(OCc1c(Cl)cc(OCC=C(Cl)Cl)cc1Cl)C1(c2ccc(OC(F)(F)F)cc2)CC1 [Compound 3.15] has an inhibition at 400 ppm (Heliothis virescens; [1]) of over 80%, an inhibition at 400 ppm (Plutella xylostella; [2]) of over 80% and an inhibition at 400 ppm (Spodoptera littoralis; [3]) of over 80%.
For O=C(OCc1c(Cl)cc(OCC=C(Cl)Cl)cc1Cl)C1(c2ccc(F)cc2F)CC1 [Compound 3.16], the melting point was 63 to 64 °C.
FC(F)(F)c1ccc(COCc2c(Cl)cc(OCC=C(Cl)Cl)cc2Cl)cc1 [Compound 5.6] gave an inhibition at 400 ppm (Heliothis virescens; [1]) of over 80%, an inhibition at 400 ppm (Plutella xylostella; [2]) of over 80% and an inhibition at 400 ppm (Spodoptera littoralis; [3]) of over 80%.
FC(F)(F)c1ccc(OCc2c(Cl)cc(OCC=C(Cl)Cl)cc2Cl)cc1 [Compound 1.2] showed an inhibition at 400 ppm (Heliothis virescens; [1]) of over 80% and an inhibition at 400 ppm (Spodoptera littoralis; [3]) of over 80%.
N#Cc1c(Br)sc(C2OCC(COCc3c(Cl)cc(OCC=C(Cl)Cl)cc3Cl)O2)c1Cl (stereo not shown) [Compound 2.17] gave an inhibition at 400 ppm (Heliothis virescens; [1]) of over 80% and an inhibition at 400 ppm (Plutella xylostella; [2]) of over 80%.
Molecule O=C(OCCOCc1c(Cl)cc(OCC=C(Cl)Cl)cc1Cl)c1ccc(OC(F)(F)F)cc1 [Compound 8.12] has an inhibition at 400 ppm (Heliothis virescens; [1]) of over 80%, an inhibition at 400 ppm (Plutella xylostella; [2]) of over 80% and an inhibition at 400 ppm (Spodoptera littoralis; [3]) of over 80%.
For Cc1nsc(Oc2ccc(OCCOCc3c(Cl)cc(OCC=C(Cl)Cl)cc3Cl)cc2)n1 [Compound 4.10], the melting point was 95 to 97 °C.
Molecule Cn1nc(C2OCC(COCc3c(Cl)cc(OCC=C(Cl)Cl)cc3Cl)O2)c(C(F)(F)F)c1Cl (stereo not shown) [Compound 2.15] has an inhibition at 400 ppm (Heliothis virescens; [1]) of over 80%, an inhibition at 400 ppm (Plutella xylostella; [2]) of over 80% and an inhibition at 400 ppm (Spodoptera littoralis; [3]) of over 80%.
Cc1nsc(Oc2cccc(OCc3c(Cl)cc(OCC=C(Cl)Cl)cc3Cl)c2)n1 [Compound 1.21] showed an inhibition at 400 ppm (Plutella xylostella; [2]) of over 80%.
Molecule CC(C)Oc1ccc(C2(C(=O)OCc3c(Cl)cc(OCC=C(Cl)Cl)cc3Cl)CC2)cc1 [Compound 3.12] has an inhibition at 400 ppm (Heliothis virescens; [1]) of over 80%, an inhibition at 400 ppm (Plutella xylostella; [2]) of over 80% and an inhibition at 400 ppm (Spodoptera littoralis; [3]) of over 80%.
Molecule ClC(Cl)=CCOc1cc(Cl)c(COCC2COC(c3ccc(Br)s3)O2)c(Cl)c1 (stereo not shown) [Compound 2.8] has an inhibition at 400 ppm (Heliothis virescens; [1]) of over 80%, an inhibition at 400 ppm (Plutella xylostella; [2]) of over 80% and an inhibition at 400 ppm (Spodoptera littoralis; [3]) of over 80%.
O=[N+]([O-])c1cc(C2OCC(COCc3c(Cl)cc(OCC=C(Cl)Cl)cc3Cl)O2)cs1 (stereo not shown) [Compound 2.12] showed an inhibition at 400 ppm (Heliothis virescens; [1]) of over 80%, an inhibition at 400 ppm (Plutella xylostella; [2]) of over 80% and an inhibition at 400 ppm (Spodoptera littoralis; [3]) of over 80%.
With O=C(OCCOCc1c(Cl)cc(OCC=C(Cl)Cl)cc1Cl)c1ccc(C(F)(F)F)cc1 [Compound 8.11] the inhibition at 400 ppm (Spodoptera littoralis; [3]) was over 80%.
For COC(=O)COCc1c(Cl)cc(OCC=C(Cl)Cl)cc1Cl [Compound 7.5], the inhibition at 400 ppm (Heliothis virescens; [1]) was over 80%, the inhibition at 400 ppm (Plutella xylostella; [2]) was over 80% and the inhibition at 400 ppm (Spodoptera littoralis; [3]) was over 80%.
Molecule C#CCOc1cccc(OCc2c(Cl)cc(OCC=C(Cl)Cl)cc2Cl)c1 [Compound 1.3] has an inhibition at 400 ppm (Heliothis virescens) of over 80%, an inhibition at 400 ppm (Plutella xylostella) of over 80% and an inhibition at 400 ppm (Spodoptera littoralis) of over 80%.
Molecule FC1(F)Oc2cccc(C3OCC(COCc4c(Cl)cc(OCC=C(Cl)Cl)cc4Cl)O3)c2O1 (stereo not shown) [Compound 2.10] has an inhibition at 400 ppm (Heliothis virescens; [1]) of over 80%, an inhibition at 400 ppm (Plutella xylostella; [2]) of over 80% and an inhibition at 400 ppm (Spodoptera littoralis; [3]) of over 80%.
With O=C(NCc1c(Cl)cc(OCC=C(Cl)Cl)cc1Cl)Nc1ccccc1C(F)(F)F [Compound 6.23, 1-[2,6-dichloro-4-(3,3-dichloroallyloxy)-benzyl]-3-(2-trifluoromethylphenyl)-urea] the inhibition at 400 ppm (Heliothis virescens; [1]) was over 80%, the inhibition at 400 ppm (Plutella xylostella; [2]) was over 80% and the inhibition at 400 ppm (Spodoptera littoralis; [3]) was over 80%. The melting point was 215 to 216 °C.
For C#COc1cccc(OCCOCc2c(Cl)cc(OCC=C(Cl)Cl)cc2Cl)c1 [Compound 4.4, 1,3-dichloro-5-(3,3-dichloroallyloxy)-2-[2-(3-ethynyloxy-phenoxy)-ethoxymethyl]-benzene], the inhibition at 400 ppm (Heliothis virescens; [1]) was over 80% and the inhibition at 400 ppm (Plutella xylostella; [2]) was over 80%.
Work on FC(F)(F)Oc1ccc(C2OCC(COCc3c(Cl)cc(OCC=C(Cl)Cl)cc3Cl)O2)cc1 (single isomer, unassigned) [Compound 2.3, 4-[2,6-dichloro-4-(3,3-dichloroallyloxy)-benzyloxymethyl]-2-(4-trifluoromethoxyphenyl)-[1,3]dioxolane] yielded an inhibition at 400 ppm (Heliothis virescens; [1]) of over 80%, an inhibition at 400 ppm (Plutella xylostella; [2]) of over 80% and an inhibition at 400 ppm (Spodoptera littoralis; [3]) of over 80%.
With FC(F)(F)c1cc(OCc2c(Cl)cc(OCC=C(Cl)Cl)cc2Cl)ccn1 [Compound 1.14] the inhibition at 400 ppm (Plutella xylostella; [2]) was over 80%.
In the case of ClC(Cl)=CCOc1cc(Cl)c(COc2ccnc3cc(Cl)ccc23)c(Cl)c1 [Compound 1.12], the inhibition at 400 ppm (Heliothis virescens) is reported as over 80%, the inhibition at 400 ppm (Plutella xylostella) is reported as over 80% and the inhibition at 400 ppm (Spodoptera littoralis) is reported as over 80%.
O=C(OCc1c(Cl)cc(OCC=C(Cl)Cl)cc1Cl)C1(c2ccc([N+](=O)[O-])cc2)CC1 [Compound 3.17] showed a melting point of 107 to 108 °C.
For FC(F)(F)c1ccc(OCCOCc2c(Cl)cc(OCC=C(Cl)Cl)cc2Cl)nc1 [Compound 4.11], the inhibition at 400 ppm (Heliothis virescens; [1]) was over 80%, the inhibition at 400 ppm (Plutella xylostella; [2]) was over 80% and the inhibition at 400 ppm (Spodoptera littoralis; [3]) was over 80%.
